One data set relates to TFEB. Description: TFEB localization, transcription, protein expression and phosphorylation in astrocytes. To be noted: qPCR. The format is cell-based, mouse.
A short description of data set [1]: Gla-OC and Glu-OC in serum by ELISA. To be noted: 5×FAD Tg mice vs Tg controls, 300 ng per mouse per day. In kind it is in vivo. The text has this:
Two-month old 5×FAD Tg mice, both male as well as female were used for the study. For the purposes of this study wild type mice is referred to as Wt and 5×FAD mice is referred to as Tg. All experimental procedures in were approved by the Institutional Animal Ethics Committee. For experimentation, the mice were divided in below groups for treatment:
1. Wild type mice given vehicle (lx PBS or phosphate buffered saline; pH 7.4). 2. 5×FAD Transgenic mice given vehicle. 3. 5×FAD Transgenic mice given carboxylated osteocalcin (Gla-OC) subcutaneously at doses (300 ng-1000 ng per mouse of weight ranging from 25-28 g for 1 month). 4. Wild type mice given Gla-OC.
Foremost the status of osteocalcin in long bones and serum of amyloid overexpressing 5×FAD Tg mice was evaluated. Thereafter, the effect of osteocalcin administration against amyloidosis in brain was tested. 1. The status of osteocalcin expression in bone was determined by evaluating the mRNA level of Bglap2 gene (gene that encodes osteocalcin in mouse) using quantitative PCR or qPCR. Long bones of mice like femur and tibia were harvested from mice after sacrifice. […] Following amplification, fold changes in gene expression versus β-actin (reference) analysis was determined using the […] (Livak) method. […] Carboxylated (Gla-OC) and undercarboxylated (Glu-OC) forms of osteocalcin in serum of mice was analyzed by ELISA. […]
A general note: An ELISA detects its analyte on a solid surface through an enzyme-linked reagent.

Another data set deals with astrocytes. Description: Lysotracker Red / HiLyte Abeta42 confocal microscopy in astrocytes. In kind it is cell-based, mouse. How it is done:
This was further confirmed by surface staining of LRP1 and confocal microscopy (FIG. 4Gc). […] We next assessed how Abeta42 degradation occurs in Gla-OC exposed astrocytes. This was assessed by first evaluating the protein expression of LC3II by immunoblot analysis. Under normal conditions excess cargo in cell is cast-off by a cell through a recycling pathway called ‘autophagy’. The first step in autophagy is autophagosome formation wherein LC3I a cytosolic microtubule associated protein light chain 3 gets lipidated to form LC3II and recruits to autophagosomal membranes to allow cells to be LC3II*, a bona fide marker of autophagy and the first step towards autophagic lysosomal degradation. Another requirement for autophagosomes to be functionally relevant is downstream fusion with lysosomes. Under normal conditions, autophagosomes fuse with endosomes to form a higher order organelle called […] ‘amphisomes’, which then matures to form ‘autolysosomes or terminal lysosomes’. The efficiency of autophagosome/lysosome fusion was evaluated using Lysotracker Red, a fluorescent dye that preferentially accumulates in vesicles with acidic pH. The cells were treated with Lysotracker Red for 20 min and fixed using ice-cold methanol. After confocal microscopy (Ziess) the images were analyzed using Image J (NIH). The co-occurrence of the two signals is shown as Mander's overlap co-efficient (MOC) in the range of values 0 to 1. […] This dye accumulates in acidic intracellular organelles and its fluorescence increases with acidic environments and decreases with that of alkaline. The status of lysosome biogenesis was assessed by immunoblot or immunocytochemistry. […] To evaluate lysosome biogenesis the status of LAMP2 (by immunoblot), cathepsins (by immunoblot and colorimetric activity based assay) and TFEB or transcription factor EB (by immunocytochemistry for cellular localization of transcription, by PCR for evaluating gene transcription, by immunoblot for protein expression and by co-immunoprecipitation and immunoblot to check phosphorylation of TFEB) were evaluated. […]

The record followed here is patent US20220175888A1, “CARBOXYLATED OSTEOCALCIN FOR TREATMENT OF AMYLOIDOSIS OR DISEASES ASSOCIATED WITH ABNORMAL PROTEIN FOLDING” (NATIONAL INSTITUTE OF IMMUNOLOGY, priority 2018, published 2022).

Positions of bridges follow the written chain, without caps; N, C: chain ends. Non-standard residues stand in square brackets, D forms with d. No end group written: not given here. Gla = N[C@@H](CC(C(=O)O)C(=O)O)C(=O)O

`CCN(CC)CCCC(C)Nc1ccnc2cc(Cl)ccc12` (stereo not drawn) [chloroquine]: the “transcription of Tfeb gene in the presence of autophagy inhibitors” value in the data set on TFEB was “increased”. For “YLYQWLGAPVPYPDPL[Gla]PRR[Gla]VC[Gla]LNPDCDELADHIGFQEAYRRFYGPV (disulfide 23-29) [Gla-OC, carboxylated osteocalcin]”, in data set [1], the “level of Gla-OC in serum” value is “significantly increased (p<0.05)”.

Regarding “HiLyte Abeta42: fluorescent HiLyte labelled Abeta42 peptide added to astrocytes; challenge agent, Abeta42 alone comparator”, the “number of Lysotracker Red puncta, lower as compared to basal” value with astrocytes (HiLyte Abeta42 treated cells without Gla-OC) turned out to be 4 fold. For the same compound, in the data set with astrocytes (astrocyte cultures), the “size of Lysotracker Red puncta” value is recorded as < 0.25 μm^2. In addition, the “degree of co-localization of HiLyte Abeta42 with Lysotracker Red (Mander's overlap co-efficient)” value in the data set on astrocytes (range of values 0 to 1, Image J analysis) worked out at 0.412.

As to `Cn1cnc(N)c2ncnc1-2` [3-methyl adenine], in the data set on TFEB, the “transcription of Tfeb gene in the presence of autophagy inhibitors” value is recorded as “increased”.
